Broadly, the pKi is the Ki on a negative log10 scale, so that one unit is a factor of ten.

pKi: −log10 of the molar value.

The target in test [1] is T1, Endothelin-1 receptor (Homo sapiens, UniProt P25101).
T1 sequence (P25101 whole entry): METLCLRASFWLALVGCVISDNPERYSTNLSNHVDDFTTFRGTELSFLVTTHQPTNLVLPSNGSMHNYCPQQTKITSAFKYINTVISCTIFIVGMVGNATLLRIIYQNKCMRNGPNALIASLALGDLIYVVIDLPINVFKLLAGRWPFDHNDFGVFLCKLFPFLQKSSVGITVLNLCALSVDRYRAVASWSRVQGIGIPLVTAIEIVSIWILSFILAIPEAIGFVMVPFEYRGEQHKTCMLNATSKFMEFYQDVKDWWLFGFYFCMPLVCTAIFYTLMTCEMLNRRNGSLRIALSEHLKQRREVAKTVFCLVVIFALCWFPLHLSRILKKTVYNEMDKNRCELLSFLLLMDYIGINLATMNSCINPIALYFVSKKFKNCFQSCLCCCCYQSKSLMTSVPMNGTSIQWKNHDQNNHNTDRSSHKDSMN

Test [2] deals with T2, Endothelin receptor type B (Homo sapiens, UniProt P24530).
T2 sequence (P24530 whole entry): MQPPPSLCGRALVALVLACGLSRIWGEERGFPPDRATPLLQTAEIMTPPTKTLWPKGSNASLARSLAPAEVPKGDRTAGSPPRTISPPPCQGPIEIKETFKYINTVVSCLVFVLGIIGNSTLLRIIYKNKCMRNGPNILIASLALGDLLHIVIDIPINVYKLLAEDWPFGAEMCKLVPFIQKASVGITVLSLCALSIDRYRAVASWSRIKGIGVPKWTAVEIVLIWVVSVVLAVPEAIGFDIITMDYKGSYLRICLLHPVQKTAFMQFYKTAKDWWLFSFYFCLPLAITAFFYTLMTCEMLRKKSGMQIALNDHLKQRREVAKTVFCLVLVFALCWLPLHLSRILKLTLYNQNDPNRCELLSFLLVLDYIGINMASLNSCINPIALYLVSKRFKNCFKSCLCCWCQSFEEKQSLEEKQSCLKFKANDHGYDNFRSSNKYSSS

As for `CCCOc1ccc2c(c1)[C@@H](c1ccc(OC)cc1OCC(=O)O)[C@H](C(=O)O)[C@H]2c1ccc2c(c1)OCO2` [(1S,2R,3S)-1-Benzo[1,3]dioxol-5-yl-3-(2-carboxymethoxy-4-methoxy-phenyl)-5-propoxy-indan-2-carboxylic acid], the negative-log Ki (pKi) in test [1] was 9.40; in test [2], 7.68.

For `CCCOc1ccc2c(c1)[C@@H](c1ccc(OC)cc1OCCO)[C@H](C(=O)O)[C@H]2c1ccc2c(c1)OCO2` [Enrasentan], the figures for the pKi in test [1] and in test [2] were 8.82 and 6.82, respectively.

For `CCCCn1ncc(/C=C(\Cc2cc3c(cc2OC)OCO3)C(=O)O)c1-c1ccc(OC)cc1OCc1ccccc1C(=O)O` [SB-234551], the pKi is 9.89 in test [1] and 6.30 in test [2].

The record behind these values is BindingDB's records for PubMed 9694916 (Smithkline Beecham Pharmaceuticals, 1998).
